These results are taken from patent EP0044212B1, “Herbicidal o-alkylsulfonyloxy- and o-alkylsulfonylamino-benzenesulfonamides” (E.I. DU PONT DE NEMOURS AND COMPANY, priority 1980, dated 1982).

The subject of one test is Bean. Put plainly: Test C pre-emergence on Fallsington silt loam soil. It counts as in vivo, Black Valentine beans. Conditions: 0.03 kg/ha, 28 days. The text has this:
The high herbicidal activity of two of the compounds from within the scope of the invention is evident from the results obtained in this test. The experiment concerned pre-emergence applications on soil. The containers used were 25 cm diameter plastic pots filled with Fallsington silt loam. One set of pots was planted to weeds, the seeds of which were uniformly mixed with the top 1.2 cm layer of soil. The species selected were: johnsongrass (Sorghum halepense), barnyardgrass (Echinochloa crusgalli), crabgrass (Digitaria sanguinalis), giant foxtail (Setaria faberii), velvetleaf (Abutilon theophrasti), jimsonweed (Datura stramonium), mustard (Brassica arvensis), and pigweed (Amaranthus retroflexus). Another set of pots were planted to the following crops with from one to four species per pot: corn (planting depth 3.7 cm), cotton, soybeans, sunflower, Clinton oats, wheat, Black Valentine beans, rice, sorghum, peas, flax, and peanuts (all at 2.5 cm depth), cucumbers, cabbage, alfalfa, safflower, sugarbeets, tomato, spinach, barley, and Kentucky bluegrass (all at 1.2 cm depth). Immediately after planting, the test chemical was applied to the soil surfaces dissolved in a non-phytotoxic solvent. One pot from the weed phase and one of each of the crop species were left untreated for the purpose of comparison. […]

In another test the test system is Green Foxtail. The experiment in a line: Test D pre-/post-emergence weed control in cereals. Type of test: in vivo, Setaria viridis. Particulars: 20 days. The source says:
Two ten-inch in diameter plastic pans lined with polyethylene liners were filled with prepared Fallsington slit loam soil. One pan was planted with seeds of wheat (Triticum aestivum), barley (Hordeum vulgarel, wild oats (Avena fatua), downy brome (Bromus tectorum), cheatgrass (Bromus secalinus), blackgrass (Alopecurus myosuroides), annual bluegrass (Poa annual, green foxtail (Setaria viridis), quack grass (Agropyron repens), Italian ryegrass (Lolium multiflorum) and ripgut brome (Bromus rigidus). The other pan was planted with seeds of Russian thistle (Salsola kali), tansy mustard (Descuraina pinnata), smartweed (Polygonum pensylvanicum), tumble mustard (Sisymbrium altissium) kochia (Kochia scoparia), shepherd's purse (Capsella bursa-pastoris), Matricaria inodora, black nightshade (Solanum nigrum), yellow rocket (Barbarea vulgaris), wild mustard (Brassica kaber) and wild buckwheat (Polygonum convolvulus). The above two pans were treated pre-emergence. At the same time two pans in which the above plant species were growing were treated post-emergence. Plant height at the time of treatment ranged from 1-15 cm depending on plant species.
The compounds applied were diluted with a non-phytotoxic solvent and sprayed over-the-top of the pans. An untreated control and a solvent alone control were included for comparison. All treatments were maintained in the greenhouse for 20 days at which time the treatments were compared to the controls and the effects visually rated. The recorded data, presented in Table D, indicate that certain compounds from within the scope of the invention have utility for pre- and/or post-emergence weed control in cereal crops such as wheat and barley.

The next test deals with rice and corn. The experiment in a line: Crop selectivity statement (greenhouse tests). Type of test: in vivo. Particulars: summary statement. The source says:
(§1) The activity of the compounds of formula I was investigated in a number of greenhouse tests.

The test system of another test is Soybeans. Put plainly: Test G broadleaf herbicidal properties, overall spray. Type of test: in vivo, soybean. Particulars: 0.015 kg/ha, 22 days after treatment. As to the method: Approximately 12 soybean plants were grown in a 25 cm. diameter plastic pot. In another pot of equal size the following broadleaf plant species were grown: sugarbeets, velvetleaf, Sesbania, Cassia, mustard, morningglory, alfalfa, jimsonweed, and cocklebur. The plant foliage and surrounding soil were treated with the test chemical dissolved in a non-phytotoxic solvent as an overall spray at the rate of 0.015 kg/ha, when the plants were 17 days old. Visual ratings of herbicidal effects were made 22 days after treatment utilizing the rating system described for Test A.

The test system of the next test is soybeams. Put plainly: Crop selectivity statement (greenhouse tests). It counts as in vivo. Particulars: summary statement.
Text: as §1

Take `COc1cc(OC)nc(NC(=O)NS(=O)(=O)c2ccccc2OS(C)(=O)=O)n1` [Compound 1, N-[(4,6-Dimethoxypyrimidin-2-yl)aminocarbonyl]-2-hydroxybenzenesulfonamide, methanesulfonate]: in the test with Bean, the Bean response rating was determined as 0.

Turning to `CCCS(=O)(=O)Oc1ccccc1S(=O)(=O)NC(=O)Nc1nc(OC)cc(OC)n1` [Compound 36, N-[(4,6-dimethoxypropimidin-2-yl)aminocarbonyl]-2-hydroxybenzenesulfonamide, 1-propanesulfonate], the “Green Foxtail response rating” value worked out at 1G in the test with Green Foxtail (Post-Emergence, 0.015 kg/ha); 2G with Green Foxtail (Post-Emergence, 0.06 kg/ha); 2G with Green Foxtail (Pre-Emergence, 0.015 kg/ha). Moreover, in the test on rice and corn, the “selectivity on rice and corn” value is “shows selectivity on rice and corn”.

In the test with Soybeans, `CCCS(=O)(=O)Oc1ccccc1S(=O)(=O)NC(=O)Nc1nc(C)nc(OC)n1` [Compound 39, 2-hydroxy-N-[(4-methoxy-6-methyl-1,3,5-triazin-2-yl)aminocarbonyl]benzenesulfonamide, 1-propanesulfonate] came in with a Soybeans response rating of 0. For the same compound, the selectivity on soybeams entry with soybeams is recorded as “shows selectivity on soybeams”.
